Results: patent publication US6476077B1, “N-(2-phenyl-4-amino-butyl)-1-naphthamides as neurokinin-1 receptor antagonists” (Astrazeneca AB, priority 1999, dated 2002)

Molecular target: T1, NK1 receptor (Oryctolagus cuniculus, UniProt G1SEI7)
T1 construct: The pulmonary arteries are isolated from the rest of the tissues and cut in half to serve as pairs; from tissue; host or cells: rabbit pulmonary artery rings (male New Zealand white rabbit)
Test: Rabbit Pulmonary Artery: NK1 in vitro functional assay (Test C)
Format: biochemical
Settings: rabbit pulmonary artery rings; antagonism of relaxation by agonist ASMSP; -log molar KB; read-out: NK1 pKb (Test C) (converted)
Experimental: Rabbit Pulmonary Artery: NK1 in vitro functional assay (Test C)
The ability of a Compound of the invention to antagonize the action of the agonist Ac-[Arg^6, Sar^9, Met(O2)^11]
Male New Zealand white rabbits are euthanized via i.v. injection into an ear vein with 60 mg/kg Nembutal (50 mg/ml). Preceding the Nembutal into the vein is Heparin (1000 units/ml) at 0.0025 ml/kg for anticoagulant purposes. The chest cavity is opened from the top of the rib cage to the sternum and the heart, lungs and part of the trachea are removed. The pulmonary arteries are isolated from the rest of the tissues and cut in half to serve as pairs.
The segments are suspended between stainless steel stirrups, so as not to remove any of the endothelium, and placed in water-jacketed (37.0° C.) tissue baths containing physiological salt solution of the following composition (mM): NaCl, 118.0; KCl, 4.7; CaCl2, 1.8; MgCl2, 0.54; NaH2PO4, 1.0; NaHCO3, 25.0; glucose, 11.0; indomethacin, 0.005(to inhibit cyclooxygenase); and dl-Propranolol, 0.001(to block β receptors); gassed continuously with 95% O2-5% CO2. Responses are measured on a Grass polygraph via Grass FT-03 transducers and the electrical signals (data) acquired using a Mi^2 software/hardware system for subsequent conversion to measures of relaxation. […]

T1 sequence (G1SEI7 1-407): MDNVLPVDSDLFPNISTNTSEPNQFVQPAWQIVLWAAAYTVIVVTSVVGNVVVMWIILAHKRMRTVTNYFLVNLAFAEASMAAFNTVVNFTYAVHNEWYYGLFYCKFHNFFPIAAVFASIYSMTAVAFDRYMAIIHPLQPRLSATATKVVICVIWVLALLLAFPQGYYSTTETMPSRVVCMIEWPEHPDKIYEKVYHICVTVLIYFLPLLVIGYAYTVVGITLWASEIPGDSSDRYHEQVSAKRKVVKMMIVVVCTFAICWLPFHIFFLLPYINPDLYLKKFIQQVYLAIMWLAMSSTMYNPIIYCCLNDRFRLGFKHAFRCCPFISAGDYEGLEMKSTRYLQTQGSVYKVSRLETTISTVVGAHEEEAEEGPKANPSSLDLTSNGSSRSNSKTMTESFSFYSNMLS

Structure (SMILES) | Kb
COc1c(C#N)cc2ccccc2c1C(=O)N(C)CC(CCN(C)C)c1ccc(Cl)c(Cl)c1 (centres unmarked) [Example 6] | 2 nM
COc1c(C#N)cc2ccccc2c1C(=O)N(C)CC(CCN1CCOCC1)c1ccc(Cl)c(Cl)c1 (centres unmarked) [Example 4] | 5.01 nM
